Square brackets hold non-standard residues; d marks the D form. Peptide text beside a SMILES is read from it. * marks the point of attachment. His(Trt) = N[C@@H](Cc1cn(C(c2ccccc2)(c2ccccc2)c2ccccc2)cn1)C(=O)O; His(τ-CHPh2) = N[C@@H](Cc1cn(C(c2ccccc2)c2ccccc2)cn1)C(=O)O; Tyr(3-Cl) = N[C@@H](Cc1ccc(O)c(Cl)c1)C(=O)O; dPhe(4-Cl) = N[C@H](Cc1ccc(Cl)cc1)C(=O)O; dPhe(4-Me) = Cc1ccc(C[C@@H](N)C(=O)O)cc1; dPhe(4-F) = N[C@H](Cc1ccc(F)cc1)C(=O)O; Palmitoyl = CCCCCCCCCCCCCCCC(=O)*; Lauroyl = CCCCCCCCCCCC(=O)*; Octanoyl = CCCCCCCC(=O)*
Biological target: T1, GPR39 (Homo sapiens, UniProt O43194)
T1 sequence (O43194 1-453): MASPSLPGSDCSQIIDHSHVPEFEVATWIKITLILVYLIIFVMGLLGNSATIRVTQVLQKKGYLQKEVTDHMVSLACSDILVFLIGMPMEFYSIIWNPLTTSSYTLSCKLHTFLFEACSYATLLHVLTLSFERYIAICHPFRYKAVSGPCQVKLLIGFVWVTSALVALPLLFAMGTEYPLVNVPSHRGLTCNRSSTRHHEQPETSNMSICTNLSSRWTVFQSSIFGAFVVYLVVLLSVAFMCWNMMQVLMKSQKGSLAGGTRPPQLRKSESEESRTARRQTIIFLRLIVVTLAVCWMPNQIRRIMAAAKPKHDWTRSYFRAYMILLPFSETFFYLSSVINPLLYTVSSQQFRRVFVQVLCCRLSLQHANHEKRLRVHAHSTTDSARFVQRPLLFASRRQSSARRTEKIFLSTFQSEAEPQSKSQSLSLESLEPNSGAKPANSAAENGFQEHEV
Assay: not given
Details: not given

| Compound | ECmax (-fold induction over basal) |
| --- | --- |
| CCCCCCCC(=O)NCCCC[C@H](NC(=O)[C@@H](N)Cc1cn(C(c2ccccc2)(c2ccccc2)c2ccccc2)cn1)C(=O)N[C@H](Cc1ccc(F)cc1)C(=O)N[C@@H](Cc1ccc(O)cc1)C(=O)O [HKFY-28, ((R)-2-((S)-2-((S)-2-amino-3-(1-trityl-1H-imidazol-4-yl)propanamido)-6-octanamidohexanamido)-3-(4-fluorophenyl)propanoyl)-L-tyrosine] (H-[His(Trt)]K(Octanoyl)[dPhe(4-F)]Y-OH) | 22.95 ± 2.58 -fold induction over basal |
| CCCCCCCC(=O)NCCCC[C@H](NC(=O)[C@@H](N)Cc1cn(C(c2ccccc2)c2ccccc2)cn1)C(=O)N[C@H](Cc1ccc(C)cc1)C(=O)N[C@@H](Cc1ccc(O)c(Cl)c1)C(=O)O [HKFY-67, (S)-2-((R)-2-((S)-2-((S)-2-amino-3-(1-benzhydryl-1H-imidazol-4-yl)propanamido)-6-octanamidohexanamido)-3-(p-tolyl)propanamido)-3-(3-chloro-4-hydroxyphenyl)propanoic acid] (H-[His(τ-CHPh2)]K(Octanoyl)[dPhe(4-Me)][Tyr(3-Cl)]-OH) | 10.2 ± 1.51 -fold induction over basal |
| CCCCCCCC(=O)NCCCC[C@H](NC(=O)[C@@H](N)Cc1cn(C(c2ccccc2)(c2ccccc2)c2ccccc2)cn1)C(=O)N[C@@H](Cc1ccccc1)C(=O)N[C@@H](CO)C(=O)O [HKFY-50, N6-octanoyl-N2-(Nt-trityl-L-histidyl)-L-lysyl-L-phenylalanyl-L-serine] (H-[His(Trt)]K(Octanoyl)FS-OH) | 16.2 ± 1.5 -fold induction over basal |
| CCCCCCCC(=O)NCCCC[C@H](NC(=O)[C@@H](N)Cc1cn([C@H](c2ccccc2)c2ccc(Cl)cc2)cn1)C(=O)N[C@@H](Cc1ccccc1)C(=O)N[C@@H](Cc1ccc(O)cc1)C(=O)O [HKFY-21, N2-(Nt-((R)-(4-chlorophenyl)(phenyl)methyl)-L-histidyl)-N6-octanoyl-L-lysyl-L-phenylalanyl-L-tyrosine] | 18.3 ± 2.5 -fold induction over basal |
| CCCCCCCC(=O)NCCCC[C@H](NC(=O)[C@H](CO)NC(=O)CNC(=O)[C@@H](N)Cc1cn(C(c2ccccc2)(c2ccccc2)c2ccccc2)cn1)C(=O)N[C@@H](Cc1ccccc1)C(=O)N[C@@H](Cc1ccc(O)cc1)C(=O)O [HKFY-53, N6-octanoyl-N2-(Nt-trityl-L-histidylglycyl-L-seryl)-L-lysyl-L-phenylalanyl-L-tyrosine] (H-[His(Trt)]GSK(Octanoyl)FY-OH) | 8 ± 2.12 -fold induction over basal |
| CCCCCCCC(=O)NCCCC[C@H](NC(=O)[C@@H](N)Cc1cn(C(c2ccccc2)c2ccc(OC)cc2)cn1)C(=O)N[C@@H](Cc1ccccc1)C(=O)N[C@@H](Cc1ccc(O)cc1)C(=O)O (stereo partly drawn) [HKFY-20, N2-(Nt-((4-methoxyphenyl)(phenyl)methyl)-L-histidyl)-N6-octanoyl-L-lysyl-L-phenylalanyl-L-tyrosine] | 20.26 ± 2.7 -fold induction over basal |
| CCCCCCCCCCCCCCCC(=O)NCCCC[C@H](NC(=O)[C@@H](N)Cc1cn(C(c2ccccc2)(c2ccccc2)c2ccccc2)cn1)C(=O)N[C@@H](Cc1ccccc1)C(=O)N[C@@H](Cc1ccc(O)cc1)C(=O)O [HKFY-27, N6-palmitoyl-N2-(Nt-trityl-L-histidyl)-L-lysyl-L-phenylalanyl-L-tyrosine] (H-[His(Trt)]K(Palmitoyl)FY-OH) | 20.4 ± 0.57 -fold induction over basal |
| CCCCCCCC(=O)NCCCC[C@H](NC(=O)[C@@H](N)Cc1cn(-c2ccccc2)c(-c2ccccc2)n1)C(=O)N[C@H](Cc1ccc(C)cc1)C(=O)N[C@@H](Cc1ccc(O)cc1)C(=O)O [HKFY-59, ((R)-2-((S)-2-((S)-2-amino-3-(1,2-diphenyl-1H-imidazol-4-yl)propanamido)-6-octanamidohexanamido)-3-(p-tolyl)propanoyl)-L-tyrosine] | 6.76 ± 2.2 -fold induction over basal |
| CCCCCCCCCCCC(=O)NCCCC[C@H](NC(=O)[C@@H](N)Cc1cn(C(c2ccccc2)(c2ccccc2)c2ccccc2)cn1)C(=O)N[C@@H](Cc1ccccc1)C(=O)N[C@@H](Cc1ccc(O)cc1)C(=O)O [HKFY-25, N6-dodecanoyl-N2-(Nt-trityl-L-histidyl)-L-lysyl-L-phenylalanyl-L-tyrosine] (H-[His(Trt)]K(Lauroyl)FY-OH) | 7.72 ± 0.57 -fold induction over basal |
| CCCCCCCC(=O)NCCCC[C@H](NC(=O)[C@@H](N)Cc1cn(C(c2ccccc2)(c2ccccc2)c2ccccc2)cn1)C(=O)N[C@@H](Cc1ccc(O)cc1)C(=O)N[C@@H](Cc1ccc(O)cc1)C(=O)O [HKFY-48, N6-octanoyl-N2-(Nt-trityl-L-histidyl)-L-lysyl-L-tyrosyl-L-tyrosine] (H-[His(Trt)]K(Octanoyl)YY-OH) | 14.4 ± 2.7 -fold induction over basal |
| CCCCCCCC(=O)NCCCC[C@H](NC(=O)[C@@H](N)Cc1cn(C(c2ccccc2)(c2ccccc2)c2ccccc2)cn1)C(=O)N[C@@H](Cc1ccccc1)C(=O)N[C@@H](Cc1ccc(O)cc1)C(=O)N[C@@H](CO)C(=O)N[C@@H](CC(=O)O)C(=O)N[C@@H](CCC(N)=O)C(=O)N[C@@H](CCC(N)=O)C(=O)N[C@@H](C)C(=O)N[C@@H](CCCNC(=N)N)C(=O)N[C@@H](Cc1ccccc1)C(N)=O [HKFY-38, (3S,6S,9S,12S,15S)-15-((S)-2-amino-3-(1-trityl-1H-imidazol-4-yl)propanamido)-12-benzyl-3-(((6S,9S,12S,15S)-1,18-diamino-6-(((S)-1-amino-1-oxo-3-phenylpropan-2-yl)carbamoyl)-12-(3-amino-3-oxopropyl)-1-imino-9-methyl-8,11,14,18-tetraoxo-2,7,10,13-tetraazaoctadecan-15-yl)carbamoyl)-9-(4-hydroxybenzyl)-6-(hydroxymethyl)-5,8,11,14,21-pentaoxo-4,7,10,13,20-pentaazaoctacosanoic acid] (H-[His(Trt)]K(Octanoyl)FYSDQQARF-NH2) | 16.5 ± 0.02 -fold induction over basal |
| CCCCCCCC(=O)NCCCC[C@H](NC(=O)[C@@H](N)Cc1cn([C@H](c2ccccc2)c2ccc(C)cc2)cn1)C(=O)N[C@@H](Cc1ccccc1)C(=O)N[C@@H](Cc1ccc(O)cc1)C(=O)O [HKFY-22, N6-octanoyl-N2-(Nt-((R)-phenyl(p-tolyl)methyl)-L-histidyl)-L-lysyl-L-phenylalanyl-L-tyrosine] | 21.3 ± 1.8 -fold induction over basal |
| CCCCCCCC(=O)NCCCC[C@H](NC(=O)[C@@H](N)Cc1cn(C(c2ccccc2)(c2ccccc2)c2ccccc2)cn1)C(=O)N[C@@H](CC(C)C)C(=O)N[C@@H](Cc1ccc(O)cc1)C(=O)O [HKFY-51, N6-octanoyl-N2-(Nt-trityl-L-histidyl)-L-lysyl-L-leucyl-L-tyrosine] (H-[His(Trt)]K(Octanoyl)LY-OH) | 14.4 ± 1.9 -fold induction over basal |
| CCCCCCCC(=O)NCCCC[C@H](N)C(=O)N[C@@H](Cc1cn(C(c2ccccc2)(c2ccccc2)c2ccccc2)cn1)C(=O)N[C@@H](Cc1ccccc1)C(=O)N[C@@H](Cc1ccc(O)cc1)C(=O)O [HKFY-55, Na-(N6-octanoyl-L-lysyl)-Nt-trityl-L-histidyl-L-phenylalanyl-L-tyrosine] (H-K(Octanoyl)[His(Trt)]FY-OH) | 16.8 ± 2.5 -fold induction over basal |
| CCCCCCCC(=O)NCCCC[C@H](NC(=O)[C@@H](N)Cc1cn(C(c2ccccc2)(c2ccccc2)c2ccccc2)cn1)C(=O)N[C@H](Cc1ccc(Cl)cc1)C(=O)N[C@H](Cc1ccc(O)cc1)C(=O)O [HKFY-15, ((R)-2-((S)-2-((S)-2-amino-3-(1-trityl-1H-imidazol-4-yl)propanamido)-6-octanamidohexanamido)-3-(4-chlorophenyl)propanoyl)-D-tyrosine] (H-[His(Trt)]K(Octanoyl)[dPhe(4-Cl)][dY]-OH) | 24.7 ± 2.6 -fold induction over basal |
| CCCCCCCC(=O)NCCCC[C@H](NC(=O)[C@@H](N)Cc1cn(C(c2ccccc2)(c2ccccc2)c2ccccc2)cn1)C(=O)N[C@@H](Cc1ccccc1)C(=O)N[C@@H](Cc1ccc(O)cc1)C(=O)N[C@@H](CCC(N)=O)C(=O)N[C@@H](CC(N)=O)C(=O)N[C@@H](CCC(N)=O)C(=O)N[C@@H](C)C(=O)N[C@@H](CCCNC(=N)N)C(=O)N[C@@H](Cc1ccccc1)C(N)=O [HKFY-43, (S)-N1-((S)-1-(((S)-1-(((S)-1-amino-1-oxo-3-phenylpropan-2-yl)amino)-5-guanidino-1-oxopentan-2-yl)amino)-1-oxopropan-2-yl)-2-((2S,5S,8S,11S,14S)-2-(2-amino-2-oxoethyl)-14-((S)-2-amino-3-(1-trityl-1H-imidazol-4-yl)propanamido)-5-(3-amino-3-oxopropyl)-11-benzyl-8-(4-hydroxybenzyl)-4,7,10,13,20-pentaoxo-3,6,9,12,19-pentaazaheptacosanamido)pentanediamide] (H-[His(Trt)]K(Octanoyl)FYQNQARF-NH2) | 12.1 ± 0.02 -fold induction over basal |

Biological target: T1, GPR39
Assay: luciferase assay system (SRE luciferase reporter gene) for GPR39 in CV-1 cells
Details: CV-1 cells, GPR39 and SRE luciferase adenovirus, treated 6 hours, luminometer
Description: Specifically, the fibroblast cell line CV-1 (1×10^5 cells/ml, Korea Cell Line Bank) was cultured in a 96 well cell culture plate for 24 hours, and then treated with GPR39 inserted into adenovirus and SRE (serum response element) luciferase at 50 MOI (multiplicity of infection) and 25 MOI virus for 3 hours, respectively, and then cultured for 24 hours.

| Compound | ECmax (-fold induction over basal) |
| --- | --- |
| CCCCCCCC(=O)NCCCC[C@H](NC(=O)[C@@H](N)Cc1cncn1CCCC1CCCCC1)C(=O)N[C@@H](Cc1ccccc1)C(=O)N[C@@H](Cc1ccc(O)cc1)C(=O)O | 16 ± 2.2 -fold induction over basal |

— patent US20230212222A1 (ANYGEN CO., LTD., priority 2020, published 2023)
